Source: patent US20240165144A1, “COMPOSITIONS AND METHODS FOR MODULATING INNATE IMMUNE SIGNALING PATHWAYS” (Dana-Farber Cancer Institute, Inc., priority 2019, published 2024)

Tested on: cGAS-STING signaling
Experiment: interferon reporter assay with transfected polar cell extracts
Format: cell-based
Settings: iterative HPLC purification on 3 columns; single peak at retention time 24.5 minutes; FIG. 3
Source text: FIG. 1A-FIG. 1B—FIG. 1A cGAS is an innate immune signaling enzyme that generates cyclic GMP-AMP in response to cytosolic DNA, image adapted from (7); FIG. 1B.
Applicants then transfected these extracts into the assay that was used to measure the effects of MB21D2 expression on interferon signaling (FIG. 1B workflow at top).

`Nc1ncnc2c1ncn2[C@@H]1O[C@H](CO)[C@@H](O)[C@H]1OP(=O)([O-])OP(=O)([O-])OP(=O)([O-])[O-].[Na+].[Na+].[Na+].[Na+]` [2′-ATP, Adenosine 2′-Triphosphate, Sodium Salt] was tested, and the “anti-STING activity of HPLC-purified fraction” value was “anti-STING activity was localized to a single peak”.
